Results reported in patent publication US20220298143A1, “Pyrazole Derivatives for FGFR Inhibitor and Preparation Method Thereof” (Etern Biopharma (Shanghai) Co., Ltd., priority 2019, published 2022).
pIC50: −log10 of the molar value.

Assays:
FGFR2 = FGFR2 (Homo sapiens, UniProt P21802); experiment: Enzymatic activity test of FGFR inhibitor, Caliper model; type: biochemical; conditions: kinase pre-incubation 10 minutes
Experimental: (§1) Enzymatic Activity Test of FGFR Inhibitor-Caliper Model
(§2) The specific operation steps were as follows:
(§3) The compound was first serially diluted in 5% DMSO solution, and 5 μL of the compound solution was added to a 384-well plate. The maximum final concentration of the compound is 1 μM, being diluted three times with 10 concentrations.
(§4) 10 μL of kinase solution was added to the 384-well plate and incubated at room temperature for 10 minutes;
(§5) 10 μL of P22 peptide and ATP solution were added to the 384-well plate, and 25 μL of reaction stop buffer was added after a specific time at 28° C.;
(§6) The data was collected in Caliper read and the inhibition rate was calculated according to inhibition rate=(max−conversion)/(max−min)*100, where max is DMSO control, conversion is the reading of the compound treated group, and min is the maximum inhibition control. IC50 value of the compound was calculated with XLfit excel add-in version 5.4.0.8 software.

FGFR1 = biological target: T1, FGFR1 (Homo sapiens, UniProt P11362); experiment: as above; type: biochemical; conditions: Caliper, kinase pre-incubation 10 minutes; read-out: FGFR1
T1 construct: purchased Cama (sic; Carna) 08-133
Experimental: as §1, §2, §3, §4, §5, §6

FGFR4 = biological target: T2, FGFR4 (Homo sapiens, UniProt P22455); experiment: as above; type: biochemical; conditions: Caliper, kinase pre-incubation 10 minutes; read-out: FGFR4
T2 construct: purchased Invitrogen PR4380A
Experimental: as §1, §2, §3, §4, §5, §6

[1] = biological target: T3, FGFR1 (456-763) kinase domain protein (Homo sapiens, UniProt P11362); experiment: Confirmation of covalent bond formation between inhibitor and FGFR by mass spectrometry; type: binding
T3 construct: The purified FGFR1 (456-763) kinase domain protein
Experimental: Confirmation of the Formation of Covalent Bonds Between FGFR Irreversible Inhibitors and FGFR by Mass Spectrometry
For example, compound 1 was incubated with FGFR1, the molecular weight of the protein-compound complex was detected by mass spectrometry.
Operation steps: The purified FGFR1 (456-763) kinase domain protein was diluted with a protein buffer (20 mM Tris-HCL pH8.0, 150 mM Nacl) to a final concentration of about 20 μM (800 ng/μl). A 100 ul incubation system was used, wherein compound 1 with a final concentration of 100 μM was added to the experimental group with a molar ratio of the protein to compound of 1:5 and DMSO was added to the control group. The amount of DMSO was controlled in the two groups to be 1% by volume of the system. The experimental group and the control group were incubated on ice at the same time for 2 hours, and then diluted with 4 times volume of acetone at −20 overnight. After centrifugation at 16000×g for 10 minutes, the deposit was resuspended in 0.1% formic acid and loaded for mass spectrometry data collection.

[2] = system: Human liver cancer Hep3B cells; experiment: Hep3B transplanted tumor model; type: in vivo, Balb/c nude mice; conditions: 21 days
Experimental: Hep3B Transplanted Tumor Model
Cell culture: Human liver cancer Hep3B cells were cultured in a monolayer in vitro. The culture conditions were 1640 medium with 10% fetal bovine serum, 100 U/mL penicillin and 100 μg/mL streptomycin, incubated at 37° C. in 5% CO2 incubator. Routine digestive passage was performed by pancreatin-EDTA twice a week. When the cell saturation was 80%-90% and the number reached the requirement, the cells were collected, counted, and inoculated.
Animals: Balb/c nude mice, female, 6-8 weeks old, weighing 18-22 grams, provided by Shanghai Slack Laboratory Animal Co., Ltd. or other qualified suppliers.
Tumor inoculation: 0.2 mL (10×106+Matrixgel) Hep3B cells were subcutaneously inoculated on the right back of each mouse, and group administration was started when the average tumor volume reached about 140-200 mm^3.
Administration: compound prescription (0.5% MC+0.5% Tween 80) was made with administration dose of 0.3 mg/Kg, 1 mg/Kg, 2 mg/Kg, 3 mg/Kg, intragastric administration twice a day continuously for 21 days.
Experimental indicators: to investigate whether tumor growth was inhibited, delayed or cured, the tumor diameter was measured with a vernier caliper three times a week. The calculation formula for tumor volume is: V=0.5a×b2, where a and b represent the long diameter and short diameter of the tumor, respectively. The anti-tumor efficacy of the compound was evaluated by TGI (%). TGI (%) reflected the tumor growth inhibition rate.

FGFR3 = FGFR3 (Homo sapiens, UniProt P22607); experiment: Enzymatic activity test of FGFR inhibitor, Caliper model; type: biochemical; conditions: kinase pre-incubation 10 minutes
[3] = Compound pharmacokinetic experiment, single intragastric administration; type: in vivo; conditions: mouse, plasma, male mice, oral dosage 15 mg/Kg
Experimental: Compound Pharmacokinetic Experiment
The pharmacokinetics of the compounds of the present disclosure was determined. This application used the following methods to determine the pharmacokinetic parameters of the compounds.
For the healthy male adult mice used in the study, each group of animals was given a single intragastric administration of 5-100 mg/Kg. Fasting was from 10 hours before administration to 4 hours after administration. Blood was collected at different time points after administration, and the plasma content of the compound was determined (LC-MS/MS). The plasma concentration-time relationship was analyzed with professional software (winnonlin) to calculate the pharmacokinetic parameters of the compound.

Hep3B cells = experiment: Human liver cancer cell Hep3B survival test (CellTiter-Glo); type: cell-based; conditions: 72 hours compound treatment
Experimental: Human Liver Cancer Cell Hep3B Survival Test
The human liver cancer Hep3B cell line was from ATCC. The cells were cultured in DMEM liquid medium, and fetal bovine serum (10% FBS) and penicillin-streptomycin (100,000 U/L) were added. The cells were kept at 37° C., 95% humidity and 5% carbon dioxide in the culture medium. During the experiment, Hep3B cells were seeded in a 96-well plate at a density of 3000 cells per well. The volume of the cell suspension was 100 μL per well, and the cells were cultured overnight to attach the cells. The next day, each compound was diluted with DMSO in a three-fold gradient, and 1 μL of the solution of the compound in DMSO was added to the cell culture medium. At the same time, 1 μL of DMSO was used as a control. Three parallel sub-wells were set for each concentration of each compound. Then the cells were placed in a 37° C. incubator. After 72 hours of continuous compound treatment, 50 μL CellTiter-Glo (Promega, Madison Wis.) was added to the cell culture medium. The relative luminescence unit (RLU) of each well was determined and the cell survival rate and compound activity (IC50) were calculated.

[4] = 100 μM compound, about 20 μM protein, 2 hours on ice

T3 sequence (P11362 456-763): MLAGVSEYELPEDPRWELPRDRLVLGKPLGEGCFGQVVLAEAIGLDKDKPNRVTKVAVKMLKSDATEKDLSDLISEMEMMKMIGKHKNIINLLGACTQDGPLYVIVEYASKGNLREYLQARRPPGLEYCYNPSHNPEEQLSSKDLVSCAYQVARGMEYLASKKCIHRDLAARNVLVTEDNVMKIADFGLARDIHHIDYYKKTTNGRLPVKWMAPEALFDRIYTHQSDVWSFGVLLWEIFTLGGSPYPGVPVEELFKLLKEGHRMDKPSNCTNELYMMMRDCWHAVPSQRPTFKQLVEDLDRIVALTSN
Sequence of FGFR3 (P22607 23-806): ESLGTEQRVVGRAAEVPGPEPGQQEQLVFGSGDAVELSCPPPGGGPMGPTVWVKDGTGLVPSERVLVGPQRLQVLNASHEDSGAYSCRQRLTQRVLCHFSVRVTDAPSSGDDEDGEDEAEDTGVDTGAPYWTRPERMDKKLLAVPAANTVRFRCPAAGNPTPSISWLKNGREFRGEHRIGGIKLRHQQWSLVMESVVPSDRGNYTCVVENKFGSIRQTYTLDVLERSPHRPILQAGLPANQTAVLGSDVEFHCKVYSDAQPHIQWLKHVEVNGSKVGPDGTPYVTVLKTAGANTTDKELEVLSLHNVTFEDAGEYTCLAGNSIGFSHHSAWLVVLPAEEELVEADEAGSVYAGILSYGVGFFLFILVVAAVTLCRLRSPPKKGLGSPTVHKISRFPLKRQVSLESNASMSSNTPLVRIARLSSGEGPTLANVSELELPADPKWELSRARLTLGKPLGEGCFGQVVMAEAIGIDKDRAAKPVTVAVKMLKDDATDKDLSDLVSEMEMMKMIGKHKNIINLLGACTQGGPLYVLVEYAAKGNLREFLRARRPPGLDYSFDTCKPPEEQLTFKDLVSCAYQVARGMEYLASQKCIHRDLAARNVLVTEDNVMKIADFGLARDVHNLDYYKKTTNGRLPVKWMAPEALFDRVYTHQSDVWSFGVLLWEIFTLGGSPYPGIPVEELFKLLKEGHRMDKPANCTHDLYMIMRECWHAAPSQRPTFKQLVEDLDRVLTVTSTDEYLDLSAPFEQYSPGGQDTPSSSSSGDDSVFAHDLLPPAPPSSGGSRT
Sequence of FGFR2 (P21802 22-821): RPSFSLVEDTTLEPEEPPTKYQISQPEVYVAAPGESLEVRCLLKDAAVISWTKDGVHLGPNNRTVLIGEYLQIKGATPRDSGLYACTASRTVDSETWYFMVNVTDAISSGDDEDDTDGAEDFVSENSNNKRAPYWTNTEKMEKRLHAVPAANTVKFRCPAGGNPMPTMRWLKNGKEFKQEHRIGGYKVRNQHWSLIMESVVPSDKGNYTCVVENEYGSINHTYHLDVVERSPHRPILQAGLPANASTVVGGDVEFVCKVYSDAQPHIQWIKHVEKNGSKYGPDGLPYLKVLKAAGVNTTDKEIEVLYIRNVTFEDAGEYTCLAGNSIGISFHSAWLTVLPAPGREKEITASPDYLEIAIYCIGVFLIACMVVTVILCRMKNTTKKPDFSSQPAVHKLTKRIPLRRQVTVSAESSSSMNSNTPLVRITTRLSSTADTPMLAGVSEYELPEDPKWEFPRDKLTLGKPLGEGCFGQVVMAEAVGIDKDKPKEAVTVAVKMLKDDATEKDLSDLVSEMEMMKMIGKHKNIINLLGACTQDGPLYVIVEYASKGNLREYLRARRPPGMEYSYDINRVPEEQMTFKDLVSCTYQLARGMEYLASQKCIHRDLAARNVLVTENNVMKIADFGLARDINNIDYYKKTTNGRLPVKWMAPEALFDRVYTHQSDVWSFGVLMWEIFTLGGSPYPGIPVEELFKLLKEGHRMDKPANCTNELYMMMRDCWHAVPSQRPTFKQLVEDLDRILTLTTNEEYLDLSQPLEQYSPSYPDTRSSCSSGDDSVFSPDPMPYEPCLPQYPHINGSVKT
T1 sequence (P11362 22-822): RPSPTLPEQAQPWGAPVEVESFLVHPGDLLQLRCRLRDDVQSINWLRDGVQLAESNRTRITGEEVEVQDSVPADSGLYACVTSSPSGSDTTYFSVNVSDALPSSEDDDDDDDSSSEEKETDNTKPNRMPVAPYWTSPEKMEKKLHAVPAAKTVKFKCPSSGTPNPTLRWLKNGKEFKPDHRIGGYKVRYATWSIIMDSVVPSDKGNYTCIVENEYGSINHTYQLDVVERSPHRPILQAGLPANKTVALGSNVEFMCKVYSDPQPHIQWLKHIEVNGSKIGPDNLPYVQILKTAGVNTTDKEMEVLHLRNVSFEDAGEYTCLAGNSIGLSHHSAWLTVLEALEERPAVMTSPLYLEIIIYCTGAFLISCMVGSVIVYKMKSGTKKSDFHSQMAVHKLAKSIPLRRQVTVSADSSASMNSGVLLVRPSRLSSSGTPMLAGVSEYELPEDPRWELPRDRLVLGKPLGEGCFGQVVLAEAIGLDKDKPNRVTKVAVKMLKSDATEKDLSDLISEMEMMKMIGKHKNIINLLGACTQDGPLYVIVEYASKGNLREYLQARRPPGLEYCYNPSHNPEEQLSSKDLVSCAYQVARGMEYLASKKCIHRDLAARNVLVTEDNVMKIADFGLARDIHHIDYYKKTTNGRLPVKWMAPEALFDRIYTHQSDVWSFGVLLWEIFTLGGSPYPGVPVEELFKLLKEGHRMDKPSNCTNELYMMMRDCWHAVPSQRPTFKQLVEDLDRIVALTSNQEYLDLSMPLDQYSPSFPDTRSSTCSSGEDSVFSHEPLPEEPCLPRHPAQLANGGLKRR
T2 sequence (P22455 22-802): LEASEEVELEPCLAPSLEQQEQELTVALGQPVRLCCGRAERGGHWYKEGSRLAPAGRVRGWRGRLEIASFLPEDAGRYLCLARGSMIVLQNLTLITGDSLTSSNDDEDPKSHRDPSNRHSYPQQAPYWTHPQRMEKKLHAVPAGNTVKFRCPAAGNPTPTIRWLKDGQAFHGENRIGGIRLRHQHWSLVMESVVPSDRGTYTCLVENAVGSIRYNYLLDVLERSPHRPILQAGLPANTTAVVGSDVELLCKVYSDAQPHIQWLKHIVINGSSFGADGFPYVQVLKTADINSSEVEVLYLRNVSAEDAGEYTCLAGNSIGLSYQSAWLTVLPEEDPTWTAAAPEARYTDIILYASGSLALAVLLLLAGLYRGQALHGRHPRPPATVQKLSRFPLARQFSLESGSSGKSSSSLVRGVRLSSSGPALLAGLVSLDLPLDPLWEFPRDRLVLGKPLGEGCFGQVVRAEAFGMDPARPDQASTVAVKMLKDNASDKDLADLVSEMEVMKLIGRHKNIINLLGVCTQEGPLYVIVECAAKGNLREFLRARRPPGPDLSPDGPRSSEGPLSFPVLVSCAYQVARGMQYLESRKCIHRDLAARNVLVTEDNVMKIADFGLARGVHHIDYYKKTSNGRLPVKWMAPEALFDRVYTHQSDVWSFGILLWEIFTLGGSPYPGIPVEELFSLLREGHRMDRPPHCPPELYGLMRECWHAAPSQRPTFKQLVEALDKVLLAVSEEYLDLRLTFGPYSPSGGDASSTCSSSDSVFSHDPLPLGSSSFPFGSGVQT

pIC50 (FGFR2): 8.74
pIC50 (FGFR1): 8.72
pIC50 (FGFR4): 8.92
average molecular weight of protein-compound complex [1, 4]: 36345.5 Da
Δmolecular weight (complex versus DMSO + FGFR1) [1, 4]: 598
formation of covalent bond with FGFR1 protein ([1]; mass spectrometry): formed an irreversible covalent bond
pIC50 (FGFR3): 8.48
Cmax ([3]; read-out: Peak plasma concentration Cmax): 1.22 µM
AUC ([3]; read-out: Plasma exposure AUC): 2280 nM·h
SMILES: C=CC(=O)Nc1cc(N2CCN(CCC(F)(F)F)CC2)ccc1C(=O)Nc1cc(CCc2cc(OC)cc(OC)c2)n[nH]1 [Compound 1, 2-acrylamide-N-(3-(3,5-dimethoxyphenethyl)-1H-pyrazol-5-yl)-4-(4-(3,3,3-trifluoropropyl)piperazin-1-yl) benzamide]
TGI % ([2]; 0.3 mpk oral twice a day): 17%
TGI % ([2]; 1 mpk oral twice a day): 50%
TGI % ([2]; 2 mpk oral twice a day): 100%
TGI % ([2]; 3 mpk oral twice a day): 108%
pIC50 (Hep3B cells): 8.85
